Source: ChEMBL document CHEMBL5291721, “A preclinical secondary pharmacology resource illuminates target-adverse drug reaction associations of marketed drugs” (Nat Commun, 2023)

How the values were obtained:
[1] = target: Hydroxycarboxylic acid receptor 2 (Homo sapiens, UniProt Q8TDS4)
Glucocorticoid receptor [2] = target: T1, Glucocorticoid receptor (Homo sapiens, UniProt P04150); assay type: functional
T1 sequence (P04150 whole entry): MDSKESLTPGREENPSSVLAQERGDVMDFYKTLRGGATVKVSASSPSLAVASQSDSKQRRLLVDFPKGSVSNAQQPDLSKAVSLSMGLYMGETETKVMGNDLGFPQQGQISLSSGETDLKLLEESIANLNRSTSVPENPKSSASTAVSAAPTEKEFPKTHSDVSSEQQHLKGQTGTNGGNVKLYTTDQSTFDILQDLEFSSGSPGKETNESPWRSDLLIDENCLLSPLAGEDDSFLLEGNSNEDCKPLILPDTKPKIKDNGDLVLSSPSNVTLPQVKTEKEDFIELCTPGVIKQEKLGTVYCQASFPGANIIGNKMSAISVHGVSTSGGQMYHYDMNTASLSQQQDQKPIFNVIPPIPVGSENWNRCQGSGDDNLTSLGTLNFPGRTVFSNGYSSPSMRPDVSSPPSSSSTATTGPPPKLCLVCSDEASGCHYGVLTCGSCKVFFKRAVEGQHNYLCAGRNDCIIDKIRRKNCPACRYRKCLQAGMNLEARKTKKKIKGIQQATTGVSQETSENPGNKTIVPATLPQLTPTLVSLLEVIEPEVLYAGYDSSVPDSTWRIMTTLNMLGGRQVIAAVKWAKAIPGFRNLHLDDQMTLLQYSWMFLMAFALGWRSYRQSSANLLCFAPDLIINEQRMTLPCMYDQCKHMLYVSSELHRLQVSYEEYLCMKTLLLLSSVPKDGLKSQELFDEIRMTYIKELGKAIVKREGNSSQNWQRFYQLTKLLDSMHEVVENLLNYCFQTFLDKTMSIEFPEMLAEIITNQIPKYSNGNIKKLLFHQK

Estrogen receptor [3] = target: T2, Estrogen receptor (Homo sapiens, UniProt P03372); assay type: functional
T2 sequence (P03372 whole entry): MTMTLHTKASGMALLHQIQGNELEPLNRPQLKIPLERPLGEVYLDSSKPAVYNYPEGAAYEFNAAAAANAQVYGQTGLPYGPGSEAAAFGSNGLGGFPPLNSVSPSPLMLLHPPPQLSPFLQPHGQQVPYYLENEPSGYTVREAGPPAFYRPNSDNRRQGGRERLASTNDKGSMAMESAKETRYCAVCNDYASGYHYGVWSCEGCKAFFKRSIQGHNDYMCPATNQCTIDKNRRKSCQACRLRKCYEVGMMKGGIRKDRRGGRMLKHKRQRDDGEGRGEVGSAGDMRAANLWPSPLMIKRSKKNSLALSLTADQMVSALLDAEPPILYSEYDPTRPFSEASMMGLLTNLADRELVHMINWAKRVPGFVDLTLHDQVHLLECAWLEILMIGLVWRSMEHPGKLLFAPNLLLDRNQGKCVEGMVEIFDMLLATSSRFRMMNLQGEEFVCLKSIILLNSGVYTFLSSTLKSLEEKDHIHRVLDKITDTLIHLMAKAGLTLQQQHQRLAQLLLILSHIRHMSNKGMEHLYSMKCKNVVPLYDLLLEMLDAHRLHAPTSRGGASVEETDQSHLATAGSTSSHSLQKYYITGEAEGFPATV

Glucocorticoid receptor [4] = target: T1, Glucocorticoid receptor; assay type: functional; remark: listed apart in the source
Estrogen receptor [5] = target: T2, Estrogen receptor; assay type: functional; remark: listed apart in the source
[6] = target: 5-hydroxytryptamine receptor 5A (Homo sapiens, UniProt P47898)
[7] = target: 5-hydroxytryptamine receptor 7 (Homo sapiens, UniProt P34969)
D(1B) dopamine receptor = D(1B) dopamine receptor (Homo sapiens, UniProt P21918)
[8] = target: 5-hydroxytryptamine receptor 6 (Homo sapiens, UniProt P50406)
[9] = target: T3, Type-2 angiotensin II receptor (Homo sapiens, UniProt P50052); assay type: functional
T3 sequence (P50052 whole entry): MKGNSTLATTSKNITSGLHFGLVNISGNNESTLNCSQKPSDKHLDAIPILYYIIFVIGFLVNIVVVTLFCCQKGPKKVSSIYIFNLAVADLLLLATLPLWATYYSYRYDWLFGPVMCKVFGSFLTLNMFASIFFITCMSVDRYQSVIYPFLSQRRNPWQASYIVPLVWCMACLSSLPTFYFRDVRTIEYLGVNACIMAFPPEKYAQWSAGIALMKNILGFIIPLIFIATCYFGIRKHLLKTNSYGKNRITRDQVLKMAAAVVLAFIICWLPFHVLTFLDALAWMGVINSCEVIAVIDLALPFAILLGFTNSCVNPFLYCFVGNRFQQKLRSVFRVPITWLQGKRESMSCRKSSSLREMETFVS

[10] = target: Beta-1 adrenergic receptor (Homo sapiens, UniProt P08588); assay type: functional, cell-based
[11] = target: Voltage-dependent L-type calcium channel subunit alpha-1C (Homo sapiens, UniProt Q13936); assay type: functional, cell-based
[12] = target: Synaptic vesicular amine transporter (Rattus norvegicus, UniProt Q01827); assay type: functional
[13] = target: T4, Retinoic acid receptor alpha (Homo sapiens, UniProt P10276); assay type: functional, cell-based
T4 sequence (P10276 whole entry): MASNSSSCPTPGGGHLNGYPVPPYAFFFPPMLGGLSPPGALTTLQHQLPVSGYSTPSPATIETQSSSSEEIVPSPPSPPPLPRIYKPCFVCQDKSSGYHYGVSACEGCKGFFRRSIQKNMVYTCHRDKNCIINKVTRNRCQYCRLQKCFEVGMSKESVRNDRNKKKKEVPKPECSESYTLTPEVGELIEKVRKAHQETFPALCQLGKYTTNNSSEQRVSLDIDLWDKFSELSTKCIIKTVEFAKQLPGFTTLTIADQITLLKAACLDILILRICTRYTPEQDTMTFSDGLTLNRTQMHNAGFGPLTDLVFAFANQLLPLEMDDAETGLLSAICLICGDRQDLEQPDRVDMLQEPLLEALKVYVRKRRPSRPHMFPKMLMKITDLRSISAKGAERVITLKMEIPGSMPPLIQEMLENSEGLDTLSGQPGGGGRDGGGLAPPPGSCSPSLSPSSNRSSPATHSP
Note: assay procedure not described here.

5-hydroxytryptamine receptor 7, sequence (P34969 whole entry): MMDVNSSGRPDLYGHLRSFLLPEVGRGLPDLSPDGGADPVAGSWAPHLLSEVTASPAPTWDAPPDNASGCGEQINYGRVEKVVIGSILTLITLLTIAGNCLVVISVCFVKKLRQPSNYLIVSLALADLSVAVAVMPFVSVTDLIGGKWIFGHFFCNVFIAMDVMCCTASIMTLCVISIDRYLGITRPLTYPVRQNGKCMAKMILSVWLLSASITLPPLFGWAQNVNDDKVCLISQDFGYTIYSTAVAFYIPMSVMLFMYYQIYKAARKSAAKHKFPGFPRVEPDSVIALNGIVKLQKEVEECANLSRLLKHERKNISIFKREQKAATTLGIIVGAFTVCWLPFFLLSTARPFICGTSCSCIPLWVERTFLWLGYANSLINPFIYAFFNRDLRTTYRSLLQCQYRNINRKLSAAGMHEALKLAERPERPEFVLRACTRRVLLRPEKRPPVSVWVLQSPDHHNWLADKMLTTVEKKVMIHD
5-hydroxytryptamine receptor 6, sequence (P50406 whole entry): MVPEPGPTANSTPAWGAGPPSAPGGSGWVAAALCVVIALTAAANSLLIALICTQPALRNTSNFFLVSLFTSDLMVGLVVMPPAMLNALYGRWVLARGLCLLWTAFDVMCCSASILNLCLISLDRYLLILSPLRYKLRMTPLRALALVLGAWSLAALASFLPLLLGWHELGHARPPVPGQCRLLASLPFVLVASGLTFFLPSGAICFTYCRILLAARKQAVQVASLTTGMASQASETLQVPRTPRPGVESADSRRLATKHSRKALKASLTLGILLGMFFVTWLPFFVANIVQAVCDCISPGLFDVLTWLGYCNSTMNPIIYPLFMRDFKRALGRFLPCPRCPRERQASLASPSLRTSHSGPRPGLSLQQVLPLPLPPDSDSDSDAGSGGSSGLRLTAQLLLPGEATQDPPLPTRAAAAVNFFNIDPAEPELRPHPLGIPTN
D(1B) dopamine receptor, sequence (P21918 whole entry): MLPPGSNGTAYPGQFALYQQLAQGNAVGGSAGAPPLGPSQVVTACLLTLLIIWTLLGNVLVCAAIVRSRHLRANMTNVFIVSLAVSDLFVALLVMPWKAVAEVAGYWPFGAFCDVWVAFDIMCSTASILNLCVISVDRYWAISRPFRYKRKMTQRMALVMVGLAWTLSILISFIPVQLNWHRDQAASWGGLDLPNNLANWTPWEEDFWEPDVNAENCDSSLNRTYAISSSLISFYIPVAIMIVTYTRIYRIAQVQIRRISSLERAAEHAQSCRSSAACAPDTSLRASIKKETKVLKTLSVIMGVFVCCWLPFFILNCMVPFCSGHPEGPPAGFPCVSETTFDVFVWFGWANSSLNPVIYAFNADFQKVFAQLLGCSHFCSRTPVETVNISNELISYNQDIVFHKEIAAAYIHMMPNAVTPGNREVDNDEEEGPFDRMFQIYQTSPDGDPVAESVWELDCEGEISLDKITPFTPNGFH
5-hydroxytryptamine receptor 5A, sequence (P47898 whole entry): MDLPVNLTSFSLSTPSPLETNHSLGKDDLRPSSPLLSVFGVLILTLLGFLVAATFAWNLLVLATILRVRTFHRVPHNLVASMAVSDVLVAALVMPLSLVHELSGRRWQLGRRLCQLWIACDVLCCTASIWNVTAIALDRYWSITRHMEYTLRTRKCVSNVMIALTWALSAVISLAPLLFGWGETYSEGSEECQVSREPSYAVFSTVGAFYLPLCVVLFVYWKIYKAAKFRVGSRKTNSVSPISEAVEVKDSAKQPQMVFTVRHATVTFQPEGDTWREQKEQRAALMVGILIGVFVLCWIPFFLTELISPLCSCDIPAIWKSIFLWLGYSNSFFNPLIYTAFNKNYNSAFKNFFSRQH
Hydroxycarboxylic acid receptor 2, sequence (Q8TDS4 whole entry): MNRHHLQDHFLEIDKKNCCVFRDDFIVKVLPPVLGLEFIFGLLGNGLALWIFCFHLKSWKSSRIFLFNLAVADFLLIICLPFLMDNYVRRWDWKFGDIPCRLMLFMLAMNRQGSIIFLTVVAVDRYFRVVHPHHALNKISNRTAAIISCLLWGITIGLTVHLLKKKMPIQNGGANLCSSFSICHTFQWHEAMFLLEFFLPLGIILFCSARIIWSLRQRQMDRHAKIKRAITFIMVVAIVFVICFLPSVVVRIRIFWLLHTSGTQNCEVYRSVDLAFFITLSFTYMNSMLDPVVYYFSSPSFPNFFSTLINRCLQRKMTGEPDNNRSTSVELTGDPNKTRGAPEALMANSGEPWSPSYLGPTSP
Beta-1 adrenergic receptor, sequence (P08588 whole entry): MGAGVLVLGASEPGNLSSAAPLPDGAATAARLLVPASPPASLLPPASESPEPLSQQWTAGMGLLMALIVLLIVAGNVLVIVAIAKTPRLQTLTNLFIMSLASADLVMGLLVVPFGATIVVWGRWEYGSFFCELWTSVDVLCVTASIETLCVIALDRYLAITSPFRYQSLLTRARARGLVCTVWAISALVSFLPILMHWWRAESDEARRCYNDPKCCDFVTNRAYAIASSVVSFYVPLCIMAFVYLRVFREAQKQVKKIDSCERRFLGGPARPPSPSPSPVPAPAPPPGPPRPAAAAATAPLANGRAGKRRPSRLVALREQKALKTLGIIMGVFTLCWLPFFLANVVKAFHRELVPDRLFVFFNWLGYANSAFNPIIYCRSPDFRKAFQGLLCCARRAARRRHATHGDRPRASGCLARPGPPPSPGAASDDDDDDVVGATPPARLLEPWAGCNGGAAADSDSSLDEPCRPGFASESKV
Voltage-dependent L-type calcium channel subunit alpha-1C, sequence (Q13936 whole entry): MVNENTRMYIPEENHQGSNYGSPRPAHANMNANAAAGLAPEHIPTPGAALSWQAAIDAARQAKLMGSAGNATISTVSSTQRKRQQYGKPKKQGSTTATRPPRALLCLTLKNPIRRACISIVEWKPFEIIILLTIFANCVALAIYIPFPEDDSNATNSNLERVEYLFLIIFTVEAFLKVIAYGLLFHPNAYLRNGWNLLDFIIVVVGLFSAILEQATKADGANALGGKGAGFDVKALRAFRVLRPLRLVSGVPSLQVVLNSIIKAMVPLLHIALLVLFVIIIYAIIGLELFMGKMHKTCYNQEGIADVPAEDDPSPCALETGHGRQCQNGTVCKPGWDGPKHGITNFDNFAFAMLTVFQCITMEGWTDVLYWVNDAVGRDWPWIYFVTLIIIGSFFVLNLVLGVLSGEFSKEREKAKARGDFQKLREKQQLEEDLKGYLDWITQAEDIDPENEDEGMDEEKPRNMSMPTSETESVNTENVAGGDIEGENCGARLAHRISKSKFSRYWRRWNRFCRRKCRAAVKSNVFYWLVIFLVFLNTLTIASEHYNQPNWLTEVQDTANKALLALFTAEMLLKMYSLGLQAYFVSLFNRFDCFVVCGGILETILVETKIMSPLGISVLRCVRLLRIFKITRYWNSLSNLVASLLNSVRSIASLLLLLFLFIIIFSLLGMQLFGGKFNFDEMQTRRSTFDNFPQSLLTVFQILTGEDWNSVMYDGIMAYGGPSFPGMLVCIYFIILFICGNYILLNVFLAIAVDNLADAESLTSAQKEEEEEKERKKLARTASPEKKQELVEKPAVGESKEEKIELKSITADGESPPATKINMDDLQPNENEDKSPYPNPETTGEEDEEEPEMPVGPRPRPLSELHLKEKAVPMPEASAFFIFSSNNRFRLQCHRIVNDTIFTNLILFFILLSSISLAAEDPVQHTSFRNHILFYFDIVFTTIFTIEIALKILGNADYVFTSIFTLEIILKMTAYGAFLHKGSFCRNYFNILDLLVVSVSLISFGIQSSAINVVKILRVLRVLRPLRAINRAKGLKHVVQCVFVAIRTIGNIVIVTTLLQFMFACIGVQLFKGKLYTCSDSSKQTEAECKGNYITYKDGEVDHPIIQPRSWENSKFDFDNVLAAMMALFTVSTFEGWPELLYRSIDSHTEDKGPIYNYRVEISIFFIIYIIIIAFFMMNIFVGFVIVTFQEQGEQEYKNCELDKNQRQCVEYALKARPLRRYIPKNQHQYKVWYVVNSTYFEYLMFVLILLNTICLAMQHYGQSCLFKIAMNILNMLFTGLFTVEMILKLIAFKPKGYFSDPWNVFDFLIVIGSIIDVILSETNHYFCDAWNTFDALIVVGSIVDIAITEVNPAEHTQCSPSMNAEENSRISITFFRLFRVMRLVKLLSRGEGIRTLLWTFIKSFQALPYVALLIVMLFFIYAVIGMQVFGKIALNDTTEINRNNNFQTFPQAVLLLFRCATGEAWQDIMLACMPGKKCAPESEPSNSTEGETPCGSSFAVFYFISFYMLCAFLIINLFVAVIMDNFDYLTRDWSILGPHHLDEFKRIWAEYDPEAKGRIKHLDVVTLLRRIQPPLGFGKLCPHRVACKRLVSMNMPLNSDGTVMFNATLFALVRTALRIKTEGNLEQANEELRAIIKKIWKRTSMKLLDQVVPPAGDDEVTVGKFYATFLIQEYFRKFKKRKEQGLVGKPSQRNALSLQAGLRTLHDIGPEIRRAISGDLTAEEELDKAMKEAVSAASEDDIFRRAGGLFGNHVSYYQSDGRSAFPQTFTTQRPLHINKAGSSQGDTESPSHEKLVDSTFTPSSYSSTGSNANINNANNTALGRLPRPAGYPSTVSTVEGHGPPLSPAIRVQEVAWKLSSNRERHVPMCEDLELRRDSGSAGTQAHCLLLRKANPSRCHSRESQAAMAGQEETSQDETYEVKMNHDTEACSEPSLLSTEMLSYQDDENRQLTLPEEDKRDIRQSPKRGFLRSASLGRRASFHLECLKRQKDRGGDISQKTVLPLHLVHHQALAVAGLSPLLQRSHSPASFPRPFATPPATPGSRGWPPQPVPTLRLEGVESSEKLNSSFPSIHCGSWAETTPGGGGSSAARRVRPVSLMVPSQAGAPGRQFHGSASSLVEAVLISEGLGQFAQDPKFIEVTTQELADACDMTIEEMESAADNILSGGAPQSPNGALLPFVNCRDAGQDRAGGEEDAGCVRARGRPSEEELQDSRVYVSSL

O=C1CN=C(c2ccccc2Cl)c2cc([N+](=O)[O-])ccc2N1 [CLONAZEPAM]
AC50 [1]: > 10 µM

COc1ccc(-n2nc(C(N)=O)c3c2C(=O)N(c2ccc(N4CCCCC4=O)cc2)CC3)cc1 [APIXABAN]
AC50 (Glucocorticoid receptor [2]): > 30 µM | AC50 (Estrogen receptor [3]): > 30 µM | AC50 (Glucocorticoid receptor [4]): > 30 µM | AC50 (Estrogen receptor [5]): > 30 µM

COc1ccc2c3c1O[C@H]1C(=O)CC[C@H]4[C@@H](C2)N(C)CC[C@]314 [HYDROCODONE]
AC50 [1]: > 10 µM

CN1C2CCCC1CC(NC(=O)c1nn(C)c3ccccc13)C2 (stereo not drawn) [GRANISETRON]
AC50 [6]: > 10 µM | AC50 [7]: > 10 µM | AC50 (D(1B) dopamine receptor): > 10 µM | AC50 [8]: > 10 µM

CC(C)(C)NCC(O)COc1cccc2c1CC(O)C(O)C2 (stereo not drawn) [NADOLOL]
AC50 [9]: > 100 µM

CCCCCCOC(=O)NC(=N)c1ccc(NCc2nc3cc(C(=O)N(CCC(=O)OCC)c4ccccn4)ccc3n2C)cc1 [DABIGATRAN ETEXILATE]
AC50 (Glucocorticoid receptor [2]): > 30 µM | AC50 (Estrogen receptor [3]): > 30 µM | AC50 (Glucocorticoid receptor [4]): > 30 µM | AC50 (Estrogen receptor [5]): > 30 µM

CN1CCCN=C1/C=C/c1cccc(O)c1 [OXANTEL]
AC50 [10]: > 30 µM

CC(=O)OCC(=O)[C@@]1(O)CC[C@H]2[C@@H]3CCC4=CC(=O)CC[C@]4(C)[C@@]3(F)[C@@H](O)C[C@@]21C [FLUDROCORTISONE ACETATE]
AC50 [10]: > 30 µM

Cc1ccc(S(=O)(=O)NC(=O)N[C@H]2[C@H]3CC[C@@](C)([C@H]2O)C3(C)C)cc1 [GLIBORNURIDE]
AC50 [10]: > 30 µM

COC(=O)c1ccc2c(c1)NC(=O)/C2=C(\Nc1ccc(N(C)C(=O)CN2CCN(C)CC2)cc1)c1ccccc1 [NINTEDANIB]
AC50 (Estrogen receptor [3]): > 10 µM | AC50 (Estrogen receptor [5]): > 30 µM

O=C(O[C@H]1C[N+]2(CCCOc3ccccc3)CCC1CC2)C(O)(c1cccs1)c1cccs1 [ACLIDINIUM BROMIDE]
AC50 [1]: > 10 µM

Cc1ccc(-c2ncc(Cl)cc2-c2ccc(S(C)(=O)=O)cc2)cn1 [ETORICOXIB]
AC50 [6]: > 10 µM | AC50 [7]: > 10 µM | AC50 (D(1B) dopamine receptor): > 10 µM | AC50 [8]: > 10 µM

O=C(O)c1ccc2nc(-c3cc(Cl)cc(Cl)c3)oc2c1
AC50 [11]: > 30 µM

Cc1nnc2n1-c1ccc(Cl)cc1C(c1ccccc1)=NC2 [ALPRAZOLAM]
AC50 [1]: > 10 µM

CC1Cc2ccccc2N1NC(=O)c1ccc(Cl)c(S(N)(=O)=O)c1 (stereo not drawn) [INDAPAMIDE]
AC50 [9]: > 100 µM

CC(NC(C)(C)C)C(=O)c1cccc(Cl)c1 (stereo not drawn) [BUPROPION]
AC50 [6]: > 10 µM | AC50 [7]: > 10 µM | AC50 (D(1B) dopamine receptor): > 10 µM | AC50 [8]: > 10 µM | AC50 [12]: > 30 µM

CCCCCCCC(=O)CC[C@@H]1[C@@H](C/C=C\CCCC(=O)O)[C@@H](O)C[C@H]1O [UNOPROSTONE]
AC50 [11]: > 50 µM

COc1nc(C)nc(Cl)c1N=C1NCCN1 [MOXONIDINE]
AC50 [10]: > 30 µM

CC(=O)N1CCN(c2ccc(OCC3COC(Cn4ccnc4)(c4ccc(Cl)cc4Cl)O3)cc2)CC1 (stereo not drawn) [KETOCONAZOLE]
AC50 [12]: 0.57 µM | AC50 (Glucocorticoid receptor [4]): > 30 µM | AC50 [13]: > 30 µM
